Experimental data taken from patent US20230203041A1, “ANTAGONISTS OF THE ADENOSINE A2A RECEPTOR” (AdoRx Therapeutics Limited, priority 2020, published 2023).
Where a name gives a salt, the structure may show the parent alone.

Tests used:
[1] = molecular target: T1, human Adenosine A2a receptor (Homo sapiens, UniProt P29274); assay: Adenosine receptor TR-FRET binding assay (CA200645 displacement), A2a; conditions: 100 nM CA200645, CHO cell membranes, 2 hours at room temperature
T1 construct: expressed in transfected cells; host or cells: CHO cell membranes

[2] = molecular target: T2, human Adenosine A2b receptor (Homo sapiens, UniProt P29275); assay: Adenosine receptor TR-FRET binding assay (CA200645 displacement), A2b; conditions: 30 nM CA200645, CHO cell membranes, 2 hours at room temperature
T2 construct: expressed in transfected cells; host or cells: CHO cell membranes
T2 sequence (P29275 1-332): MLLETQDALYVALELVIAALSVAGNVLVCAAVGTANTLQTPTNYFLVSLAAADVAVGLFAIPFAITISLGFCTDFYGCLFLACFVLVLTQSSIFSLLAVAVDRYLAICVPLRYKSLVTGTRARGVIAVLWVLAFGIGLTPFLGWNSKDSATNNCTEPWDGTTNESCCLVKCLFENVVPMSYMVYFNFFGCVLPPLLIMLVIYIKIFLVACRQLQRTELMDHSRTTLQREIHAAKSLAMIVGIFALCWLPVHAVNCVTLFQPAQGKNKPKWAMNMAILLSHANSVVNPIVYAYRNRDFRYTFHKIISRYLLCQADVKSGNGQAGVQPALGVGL

[3] = molecular target: T3, human Adenosine A1 receptor (Homo sapiens, UniProt P30542); assay: Adenosine receptor TR-FRET binding assay (CA200645 displacement), A1
T3 sequence (P30542 1-326): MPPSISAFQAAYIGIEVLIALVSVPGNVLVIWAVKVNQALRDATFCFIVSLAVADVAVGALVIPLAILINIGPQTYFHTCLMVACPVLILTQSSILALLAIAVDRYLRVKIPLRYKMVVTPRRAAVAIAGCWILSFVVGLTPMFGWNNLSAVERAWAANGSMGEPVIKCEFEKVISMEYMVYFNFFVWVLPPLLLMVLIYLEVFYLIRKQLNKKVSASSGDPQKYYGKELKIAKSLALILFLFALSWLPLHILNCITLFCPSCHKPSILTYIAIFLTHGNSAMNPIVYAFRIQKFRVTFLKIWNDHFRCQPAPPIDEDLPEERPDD

[4] = molecular target: T4, human Adenosine A3 receptor (Homo sapiens, UniProt P0DMS8); assay: Adenosine receptor TR-FRET binding assay (CA200645 displacement), A3
T4 sequence (P0DMS8 1-318): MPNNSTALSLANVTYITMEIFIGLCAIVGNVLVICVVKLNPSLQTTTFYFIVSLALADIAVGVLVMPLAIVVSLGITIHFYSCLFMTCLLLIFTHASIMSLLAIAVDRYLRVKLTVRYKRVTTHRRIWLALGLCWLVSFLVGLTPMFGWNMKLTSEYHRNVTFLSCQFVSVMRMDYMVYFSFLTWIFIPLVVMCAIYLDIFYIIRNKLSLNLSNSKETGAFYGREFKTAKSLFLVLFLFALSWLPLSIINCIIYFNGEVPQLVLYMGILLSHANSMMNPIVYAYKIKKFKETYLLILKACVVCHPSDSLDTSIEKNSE

T1 sequence (P29274 whole entry): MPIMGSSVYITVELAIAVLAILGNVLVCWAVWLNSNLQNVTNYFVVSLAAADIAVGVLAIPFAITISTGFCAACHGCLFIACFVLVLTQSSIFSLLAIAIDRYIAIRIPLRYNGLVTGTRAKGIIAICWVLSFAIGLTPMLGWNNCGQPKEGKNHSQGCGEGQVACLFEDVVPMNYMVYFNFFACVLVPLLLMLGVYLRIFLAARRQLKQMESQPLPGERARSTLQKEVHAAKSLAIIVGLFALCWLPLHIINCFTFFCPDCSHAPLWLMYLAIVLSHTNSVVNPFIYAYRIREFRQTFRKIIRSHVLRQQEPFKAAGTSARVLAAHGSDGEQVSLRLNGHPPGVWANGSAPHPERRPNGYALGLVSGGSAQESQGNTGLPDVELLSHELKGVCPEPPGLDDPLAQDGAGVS

| Compound | Ki [1] [nM] | Ki [2] [nM] | Ki [3] [nM] | Ki [4] [nM] |
| --- | --- | --- | --- | --- |
| Cc1cc(-c2c(-c3cccc(C#N)c3)nn3ccc(C(=O)N[C@@H]4CCNC4)nc23)cc(Cl)n1 [Example 7.13, 3-(2-Chloro-6-methyl-4-pyridyl)-2-(3-cyanophenyl)-N-[(3R)-pyrrolidin-3-yl]pyrazolo[1,5-a]pyrimidine-5-carboxamide hydrochloride] | 6.3 | 28 | 160 | > 1000 |
| Cc1cc(-c2c(-c3cccc(C#N)c3)nn3ccc(C(=O)NCC4(C)CCC(=O)NC4)nc23)cc(C)n1 (centres unmarked) [Example 92.18] | 0.7 | 51 | 28 | > 1000 |
| N#Cc1c(-c2ccco2)nn2ccc(NC[C@H]3CCCNC3)nc12 [Example 56, 2-(2-Furyl)-5-(3-piperidylmethylamino)pyrazolo[1,5-a]pyrimidine-3-carbonitrile hydrochloride] | 141 | 2700 | 521 | > 1000 |
| N#Cc1c(-c2ccco2)nn2ccc(NCC3CCN(Cc4ccccc4)CC3)nc12 [Example 37.9] | 69.5 | 36 | 398 | > 1000 |
| Cc1cc(-c2c(-c3cccc(C#N)c3)nn3ccc(C(=O)NCC(C)(C)N)nc23)cc(Cl)n1 [Example 6.1, N-(2-Amino-2-methyl-propyl)-3-(2-chloro-6-methyl-4-pyridyl)-2-(3-cyanophenyl)pyrazolo[1,5-a]pyrimidine-5-carboxamide] | 11.7 | 53 | 664 | > 1000 |
| Cc1cc(-c2c(-c3cccc(C#N)c3)nn3ccc(C(=O)NCC4(C)NC(=O)NC4=O)nc23)c(F)c(C)n1 (centres unmarked) [Example 101, 2-(3-Cyanophenyl)-3-(3-fluoro-2,6-dimethyl-4-pyridyl)-N-[(4-methyl-2,5-dioxo-imidazolidin-4-yl)methyl]pyrazolo[1,5-a]pyrimidine-5-carboxamide] | 5 | 13 | 1510 | > 1000 |
| Cc1cc(-c2c(-c3cccc(C#N)c3)nn3ccc(C(=O)NCC4CNC(=O)C4)nc23)cc(C)n1 (centres unmarked) [Example 92.26] | 5.8 | 22 | 175 | > 1000 |
| Cc1cc(-c2c(-c3cccc(C#N)c3)nn3ccc(N)nc23)cc(C(=O)O)n1 [Example 28, 4-[5-Amino-2-(3-cyanophenyl)pyrazolo[1,5-a]pyrimidin-3-yl]-6-methyl-pyridine-2-carboxylic acid] | 359 | 2460 | 1120 | > 1000 |
| Cc1cc(-c2c(-c3cccc(C#N)c3)nn3ccc(C(=O)N[C@H]4COC[C@H]4O)nc23)cc(Cl)n1 [Example 6.17, 3-(2-Chloro-6-methyl-4-pyridyl)-2-(3-cyanophenyl)-N-[(3S,4S)-4-hydroxytetrahydrofuran-3-yl]pyrazolo[1,5-a]pyrimidine-5-carboxamide] | 0.5 | 3 | 110 | > 1000 |
| Cc1cc(-c2c(-c3cccc(C#N)c3)nn3ccc(N4CCS(=N)(=O)CC4)nc23)cc(Cl)n1 [Example 2.26] | 7.7 | 23 | 366 | > 1000 |
| Cc1cc(-c2c(-c3cccc(C#N)c3)nn3ccc(N[C@@H]4CC[C@@H]4O)nc23)cc(Cl)n1 [Example 2.22] | 6.2 | 48 | 109 | > 1000 |
| Cc1cc(-c2c(-c3cccc(C#N)c3)nn3ccc(C(=O)NC[C@@H](C)O)nc23)cc(Cl)n1 [Example 6.5, 3-(2-Chloro-6-methyl-4-pyridyl)-2-(3-cyanophenyl)-N-[(2R)-2-hydroxypropyl]pyrazolo[1,5-a]pyrimidine-5-carboxamide] | 0.9 | 7 | 361 | > 1000 |
| Cc1cc(-c2c(-c3cccc(C#N)c3)nn3ccc(C(=O)NC4CCNCC4)nc23)cc(Cl)n1 [Example 7.15, 3-(2-Chloro-6-methyl-4-pyridyl)-2-(3-cyanophenyl)-N-(4-piperidyl)pyrazolo[1,5-a]pyrimidine-5-carboxamide] | 22.1 | 25 | 703 | > 1000 |
| Cc1cc(-c2c(-c3cccc(C#N)c3)nn3ccc(C(=O)NCCN4CCN(c5ccccc5)CC4)nc23)cc(Cl)n1 [Example 5.4] | 1.3 | 19 | 107 | > 1000 |
| Cc1cc(-c2c(-c3cccc(C#N)c3)nn3ccc(NS(C)(=O)=O)nc23)cc(Cl)n1 [Example 16, N-[3-(2-Chloro-6-methyl-4-pyridyl)-2-(3-cyanophenyl)pyrazolo[1,5-a]pyrimidin-5-yl]methanesulfonamide] | 13.7 | 1 | 303 | 1180 |
| Cc1cc(-c2c(-c3cccc(C#N)c3)nn3ccc(NCc4ncc[nH]4)nc23)cc(Cl)n1 [Example 2.32] | 17.1 | 102 | 593 | > 1000 |
| Cc1cc(-c2c(-c3cccc(C#N)c3)nn3ccc(N[C@H]4CCNC4)nc23)cc(Cl)n1 [Example 4.6] | 5.1 | 4 | 230 | > 1000 |
| Cc1cc(-c2c(-c3cccc(C#N)c3)nn3ccc(N4CCN[C@H](C(C)(C)O)C4)nc23)cc(Cl)n1 [Example 2.41] | 1.7 | 2 | 82 | > 1000 |
| CCn1nccc1-c1c(-c2cccc(C#N)c2)nn2ccc(N3CCN(S(C)(=O)=O)CC3)nc12 [Example 33.4] | 48.6 | 120 | 254 | > 1000 |
| N#Cc1c(-c2ccco2)nn2ccc(NC[C@H]3CNCCO3)nc12 [Example 42.1, 2-(2-Furyl)-5-[[(2R)-morpholin-2-yl]methylamino]pyrazolo[1,5-a]pyrimidine-3-carbonitrile hydrochloride] | 410 | 4450 | 680 | > 1000 |
| Cc1cc(-c2c(-c3cccc(C#N)c3)nn3ccc(N)nc23)cc2ncnn12 [Example 27.5, 3-[5-Amino-3-(5-methyl-[1,2,4]triazolo[1,5-a]pyridin-7-yl)pyrazolo[1,5-a]pyrimidin-2-yl]benzonitrile] | 360 | 108 | 46 | > 1000 |
| Cc1cc(-c2c(-c3cccc(C#N)c3)nn3ccc(C(N)=O)nc23)cc(C)n1 [Example 5.8, 2-(3-Cyanophenyl)-3-(2,6-dimethyl-4-pyridyl)pyrazolo[1,5-a]pyrimidine-5-carboxamide] | 5.7 | 41 | 418 | > 1000 |
| Cc1cc(-c2c(-c3cccc(C#N)c3)nn3ccc(CCC(C)(C)O)nc23)cc(Cl)n1 [Example 22, 3-[3-(2-Chloro-6-methyl-4-pyridyl)-5-(3-hydroxy-3-methyl-butyl)pyrazolo[1,5-a]pyrimidin-2-yl]benzonitrile] | 1 | 34 | 141 | > 1000 |
| Cc1cc(-c2c(-c3cccc(C#N)c3)nn3ccc(C(=O)NCC4CC(O)C4)nc23)cc(Cl)n1 (centres unmarked) [Example 6.10, 3-(2-Chloro-6-methyl-4-pyridyl)-2-(3-cyanophenyl)-N-[(3-hydroxycyclobutyl)methyl]pyrazolo[1,5-a]pyrimidine-5-carboxamide] | 2.5 | 24 | 581 | > 1000 |
| Cc1cc(-c2c(-c3cccc(C#N)c3)nn3ccc(NC(=O)N4CC5(COC5)C4)nc23)cc(C)n1 [Example 30.4, N-[2-(3-Cyanophenyl)-3-(2,6-dimethyl-4-pyridyl)pyrazolo[1,5-a]pyrimidin-5-yl]-2-oxa-6-azaspiro[3.3]heptane-6-carboxamide] | 7.8 | 73 | 103 | > 1000 |
| Cc1cc(-c2c(-c3cccc(C#N)c3)nn3ccc(C(=O)NCC4CCC(=O)NC4)nc23)cc(C)n1 (centres unmarked) [Example 92.19] | 19.2 | 115 | 179 | > 1000 |
